{"source": "ChEMBL document CHEMBL1201862", "about": "“PubChem BioAssay data set” (2004)", "experiment_in_all_cases": "NCI anticancer screen, dose series, 48 h", "key": {"BT-549": {"tested_on": "BT-549"}, "CAKI-1": {"tested_on": "CAKI-1"}, "HCC 2998": {"tested_on": "HCC 2998"}, "HL-60": {"tested_on": "HL-60"}, "HOP-92": {"tested_on": "HOP-92"}, "HT-29": {"tested_on": "HT-29"}, "IGROV-1": {"tested_on": "IGROV-1"}, "K562": {"tested_on": "K562"}, "MDA-MB-231": {"tested_on": "MDA-MB-231"}, "MDA-MB-435": {"tested_on": "MDA-MB-435"}, "NCI-H460": {"tested_on": "NCI-H460"}, "OVCAR-3": {"tested_on": "OVCAR-3"}, "PC-3": {"tested_on": "PC-3"}, "RXF 393": {"tested_on": "RXF 393"}, "SK-OV-3": {"tested_on": "SK-OV-3"}, "SN12C": {"tested_on": "SN12C"}, "SNB-19": {"tested_on": "SNB-19"}, "SR": {"tested_on": "SR"}, "UACC-62": {"tested_on": "UACC-62"}, "UO-31": {"tested_on": "UO-31"}}, "note": "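Each compound was tested at five concentrations against cells in 96-well plates for 48 hours. Here, GI50 denotes the concentration required for 50% inhibition of growth.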 Calls of active or inactive are those of the source. No stated cut-off is given here; in the data, active = GI50 up to about 1.1 µM and inactive = higher.", "data": [{"smiles": "CCOC(=O)Nc1cc2c(c(N)n1)N=C(c1ccccc1)[C@H](C)N2", "note": "[MIVOBULIN ISETHIONATE]", "values": [{"measurement": "GI50", "setting": "BT-549", "result": "10 nM (active)"}, {"measurement": "GI50", "setting": "CAKI-1", "result": "< 0.1 nM (active)"}, {"measurement": "GI50", "setting": "HCC 2998", "result": "< 0.1 nM (active)"}, {"measurement": "GI50", "setting": "HL-60", "result": "< 0.1 nM (active)"}, {"measurement": "GI50", "setting": "HOP-92", "result": "10 nM (active)"}, {"measurement": "GI50", "setting": "HT-29", "result": "< 0.1 nM (active)"}, {"measurement": "GI50", "setting": "IGROV-1", "result": "< 0.1 nM (active)"}, {"measurement": "GI50", "setting": "K562", "result": "< 0.1 nM (active)"}, {"measurement": "GI50", "setting": "MDA-MB-231", "result": "< 0.1 nM (active)"}, {"measurement": "GI50", "setting": "MDA-MB-435", "result": "< 0.1 nM (active)"}, {"measurement": "GI50", "setting": "NCI-H460", "result": "< 0.1 nM (active)"}, {"measurement": "GI50", "setting": "OVCAR-3", "result": "0.468 nM (active)"}, {"measurement": "GI50", "setting": "PC-3", "result": "< 0.1 nM (active)"}, {"measurement": "GI50", "setting": "RXF 393", "result": "< 0.1 nM (active)"}, {"measurement": "GI50", "setting": "SK-OV-3", "result": "17400 nM (inactive)"}, {"measurement": "GI50", "setting": "SN12C", "result": "47.5 nM (active)"}, {"measurement": "GI50", "setting": "SNB-19", "result": "< 0.1 nM (active)"}, {"measurement": "GI50", "setting": "SR", "result": "< 0.1 nM (active)"}, {"measurement": "GI50", "setting": "UACC-62", "result": "< 0.1 nM (active)"}, {"measurement": "GI50", "setting": "UO-31", "result": "0.303 nM (active)"}]}]}
